Measurements: paper PMC9023744, “The Cytochrome P450 OxyA from the Kistamicin Biosynthesis Cyclization Cascade is Highly Sensitive to Oxidative Damage” (Frontiers in Chemistry, 2022)

Columns and labels:
[1] = molecular target: T1, OxyCkis; test: UV-visible difference spectroscopy titration, one-site model; type: binding; conditions: 50 mM Tris-HCl pH 8, 30°C; 2.5 µM enzyme
T1 construct: gene OxyC; recombinant, expressed in E. coli Arctic Express; Ni-NTA, anion exchange, size exclusion

[2] = molecular target: T2, OxyAkis ([Actinomadura] parvosata, UniProt A0A1V0AG67); test: as above; type: binding
T2 construct: gene BKM31_54160; pET28a, His-tagged, expressed in E. coli Arctic Express; Ni-NTA, anion exchange, size exclusion
T2 sequence (A0A1V0AG67 entry or part of it): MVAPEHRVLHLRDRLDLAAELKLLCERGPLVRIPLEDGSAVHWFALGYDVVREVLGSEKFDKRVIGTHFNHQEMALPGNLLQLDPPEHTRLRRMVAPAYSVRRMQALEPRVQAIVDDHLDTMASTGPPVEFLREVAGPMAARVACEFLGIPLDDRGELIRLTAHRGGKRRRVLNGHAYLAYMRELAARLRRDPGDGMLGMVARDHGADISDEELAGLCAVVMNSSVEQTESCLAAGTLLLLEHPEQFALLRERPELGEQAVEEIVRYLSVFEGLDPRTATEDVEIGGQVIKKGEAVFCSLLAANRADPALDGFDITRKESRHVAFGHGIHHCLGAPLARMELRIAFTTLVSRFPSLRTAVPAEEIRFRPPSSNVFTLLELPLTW

Compound: c1c[nH]cn1 [imidazole]
- Kd [1]: 84 µM
- Kd [2]: 120 µM
